# Experiments:
# [1] = Cmax in rat plasma at 1 mg/kg, po; format: ADME, organism-based; design: dose 1 mg/kg, route po
# [2] = Unbound Cmax in rat plasma at 1 mg/kg, po by rapid equilibrium dialysis method; format: ADME, organism-based; conditions: in vivo
# [3] = Tmax in rat plasma at 1 mg/kg, po; format: ADME, organism-based
# [4] = AUC (0 to 6 hrs) in rat plasma at 1 mg/kg, po; format: ADME, organism-based; design: time < 6 hr, dose 1 mg/kg, route po
# [5] = Unbound brain-to-plasma concentration ratio in rat at 1 mg/kg, po; format: ADME, organism-based; conditions: read-out: K(p,uu,brain)
# [6] = Cmax in rat brain at 1 mg/kg, po; format: ADME, organism-based; design: dose 1 mg/kg, route po
# [7] = Unbound Cmax in rat brain at 1 mg/kg, po by rapid equilibrium dialysis method; format: ADME, organism-based; conditions: in vivo
# [8] = Tmax in rat brain at 1 mg/kg, po; format: ADME, organism-based
# [9] = AUC (0 to 6 hrs) in rat brain at 1 mg/kg, po; format: ADME, organism-based; design: time < 6 hr, dose 1 mg/kg, route po; conditions: in vivo
# [10] = Unbound fraction in rat plasma at 1 mg/kg, po by rapid equilibrium dialysis method; format: ADME, organism-based
# [11] = Unbound fraction in rat brain at 1 mg/kg, po by rapid equilibrium dialysis method; format: ADME, organism-based
# [12] = species: Homo sapiens; assay: Selectivity ratio of Kb for antagonist activity at human alpha2A receptor stably expressed in CHO cells to Kb for antagonist activity at human alpha2C receptor stably expressed in CHO cells; format: cell-based
# [13] = Clearance in human hepatocytes assessed per million cells at 1 uM; format: ADME, cell-based, Hepatocyte; conditions: read-out: CLH
# [14] = Clearance in rat hepatocytes assessed per million cells at 1 uM; format: ADME, cell-based, Hepatocyte; conditions: read-out: CLH
# [15] = Lipophilicity, log D of compound at pH 7.4; format: physicochemical; conditions: buffer
# [16] = Solubility of compound in pH 7.4 buffer at 1 uM; format: physicochemical
# [17] = Permeability across apical to basolateral side in human Caco-2 cells; format: ADME, cell-based; conditions: read-out: permeability
# [18] = Permeability across basolateral to apical side in human Caco-2 cells; format: ADME, cell-based; conditions: read-out: permeability
# [19] = in vitro; conditions: human, Caco-2
# Description: Efflux ratio of permeability across basolateral to apical side over apical to basolateral side in human Caco-2 cells
Cmax [1] [ng/mL],fCmax [2] [nM],Tmax [3] [min],AUC(0-t) at 6 h [4] [ng·h/mL],Kp uu [5],Cmax [6] [ng/g],fCmax [7] [nM],Tmax [8] [min],AUC [9] [ng·h/g],fraction unbound [10],fraction unbound [11],hepatocyte CLint at 1 µM [13] [µL/min/1e6 cells],hepatocyte CLint at 1 µM [14] [µL/min/1e6 cells],logD ([15]; read-out: logD),solubility at 1 µM [16] [µM],Papp A→B [17] [×10⁻⁶ cm/s],Papp B→A [18] [×10⁻⁶ cm/s],efflux ratio [19],logD [15],SMILES,Selectivity ratio [12]
209,44,30,261,0.4,72,18,30,91,0.078,0.096,,,,,,,,,CCN1C(=O)C(=O)N([C@H]2CCCN(C[C@H]3COc4ccccc4O3)C2)C1=O,
2,< 0.06,30,9,,3,< 0.09,360,14,< 0.01,< 0.01,294,682,3.4,18,16.1,24.2,1.5,,Oc1cccc([C@H]2CCCN(C[C@H]3COc4ccccc4O3)C2)c1,1950
,,,,,,,,,,,38.7,135,,176,44.9,45,1,3.3,COCc1cccnc1N1CCN(C[C@H]2COc3ccccc3O2)CC1 [ORM-13070],4330

# — ChEMBL document CHEMBL5126560, “2,3-Dihydrobenzo-dioxine piperidine derivatives as potent and selective α2c antagonists” (Bioorg Med Chem Lett, 2022)
